Source: PubChem BioAssay AID1919014 (Molecular Pharmacology Branch, DTP, NCI, 2023)

Test system: NCI-H1341 complex spheroids, percent test/control
Assay: Anticancer human tumor NCI-H1341 cell line growth inhibition [AhR];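 also: spheroids exposed to agents for seven days before readout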
Conditions: for IC50: curve of first compound; for viability, T/C: stronger effect = lower value
Procedure, shortened: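 Complex tumor spheroids co-cultured with HUVEC and human MSC stroma; AhR antagonists tested in combination with standard-of-care and investigational agents. Top concentration at or near clinical Cmax (else 10 microM), half-log dilutions; growth expressed as percent test/control.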

[1] = second compound 0.1 µM, first compound 0.0316 µM
[2] = second compound 0.1 µM, first compound 0.1 µM
[3] = second compound 0.1 µM, first compound 0.316 µM
[4] = second compound 0.1 µM, first compound 1 µM
[5] = second compound 0.1 µM, first compound 3.16 µM
[6] = second compound 0.1 µM, first compound 10 µM
[7] = second compound 0.316 µM, first compound 0.0316 µM
[8] = second compound 0.316 µM, first compound 0.1 µM
[9] = second compound 0.316 µM, first compound 0.316 µM
[10] = second compound 0.316 µM, first compound 1 µM
[11] = second compound 0.316 µM, first compound 3.16 µM
[12] = second compound 0.316 µM, first compound 10 µM
[13] = second compound 1 µM, first compound 0.0316 µM
[14] = second compound 1 µM, first compound 0.1 µM
[15] = second compound 1 µM, first compound 0.316 µM
[16] = second compound 1 µM, first compound 1 µM
[17] = second compound 1 µM, first compound 3.16 µM
[18] = second compound 1 µM, first compound 10 µM
[19] = second compound 3.16 µM, first compound 0.0316 µM
[20] = second compound 3.16 µM, first compound 0.1 µM
[21] = second compound 3.16 µM, first compound 0.316 µM
[22] = second compound 3.16 µM, first compound 1 µM
[23] = second compound 3.16 µM, first compound 3.16 µM
[24] = second compound 3.16 µM, first compound 10 µM
[25] = second compound 10 µM, first compound 0.0316 µM
[26] = second compound 10 µM, first compound 0.1 µM
[27] = second compound 10 µM, first compound 0.316 µM
[28] = second compound 10 µM, first compound 1 µM
[29] = second compound 10 µM, first compound 3.16 µM
[30] = second compound 10 µM, first compound 10 µM

Compound | IC50 (second compound 0.1 µM) | IC50 (second compound 0.316 µM) | IC50 (second compound 1 µM) | IC50 (second compound 3.16 µM) | IC50 (second compound 10 µM) | viability, T/C [1] | viability, T/C [2] | viability, T/C [3] | viability, T/C [4] | viability, T/C [7] | viability, T/C [8] | viability, T/C [9] | viability, T/C [10] | viability, T/C [13] | viability, T/C [14] | viability, T/C [15] | viability, T/C [16] | viability, T/C [19] | viability, T/C [20] | viability, T/C [21] | further results
CC(C)c1c(-c2ccccc2)nc2c(C#N)c[nH]n2c1=O + Cc1cncc(-c2nc(NCCc3c[nH]c4ccccc34)c3ncn(C(C)C)c3n2)c1 | > 10000 nM | > 10000 nM | > 10000 nM | > 10000 nM | < 31.6 nM | 90.7% | 83.7% | 86.6% | 81.3% | 75.5% | 87.2% | 95.5% | 75.1% | 75.9% | 78.6% | 78.5% | 75.3% | 79.9% | 73.6% | 74.6% | viability, T/C [5]: 69.6%; viability, T/C [6]: 58%; viability, T/C [11]: 75.8%; viability, T/C [12]: 72.5%; viability, T/C [17]: 78.9%; viability, T/C [18]: 68%; viability, T/C [22]: 67.6%; viability, T/C [23]: 63.5%; viability, T/C [24]: 67.4%; viability, T/C [25]: 18%; viability, T/C [26]: 20.1%; viability, T/C [27]: 21%; viability, T/C [28]: 20.2%; viability, T/C [29]: 16.2%; viability, T/C [30]: 19.5%
CC1COCCN1c1cc(-c2ccnn2C)c2ccnc(-c3ccn[nH]3)c2n1 (stereo not given) + Cc1cncc(-c2nc(NCCc3c[nH]c4ccccc34)c3ncn(C(C)C)c3n2)c1 | 41.3 nM | 31.5 nM | 35.4 nM | 31 nM | < 3.16 nM | 57.8% | 25.1% | 25.7% | 17.8% | 49.8% | 26.8% | 19.8% | 18.7% | 51.6% | 26.8% | 23.9% | 16.7% | 50% | 32.1% | 24.8% | viability, T/C (second compound 0.1 µM, first compound 0.00316 µM): 95.1%; viability, T/C (second compound 0.1 µM, first compound 0.01 µM): 97%; viability, T/C (second compound 0.316 µM, first compound 0.00316 µM): 79.9%; viability, T/C (second compound 0.316 µM, first compound 0.01 µM): 94.4%; viability, T/C (second compound 1 µM, first compound 0.00316 µM): 77.5%; viability, T/C (second compound 1 µM, first compound 0.01 µM): 79.4%; viability, T/C (second compound 3.16 µM, first compound 0.00316 µM): 76%; viability, T/C (second compound 3.16 µM, first compound 0.01 µM): 66.2%; viability, T/C [22]: 16.9%; viability, T/C (second compound 10 µM, first compound 0.00316 µM): 21%; viability, T/C (second compound 10 µM, first compound 0.01 µM): 19%; viability, T/C [25]: 16.5%; viability, T/C [26]: 15.2%; viability, T/C [27]: 12.2%; viability, T/C [28]: 10.1%
COc1ccc([C@@H](O)c2cc(-c3ncnc4cc(N5CCOCC5)ccc34)c(F)cc2Cl)nn1 + Cc1cncc(-c2nc(NCCc3c[nH]c4ccccc34)c3ncn(C(C)C)c3n2)c1 | 1080 nM | 592 nM | 687 nM | 365 nM | < 31.6 nM | 83.7% | 75.9% | 75.9% | 49.9% | 76.3% | 69.3% | 59.9% | 42.6% | 68% | 62.3% | 61.8% | 44.6% | 71.8% | 67.6% | 46% | viability, T/C [5]: 24.6%; viability, T/C [6]: 5.31%; viability, T/C [11]: 20.3%; viability, T/C [12]: 5.39%; viability, T/C [17]: 17.4%; viability, T/C [18]: 5.3%; viability, T/C [22]: 42.1%; viability, T/C [23]: 16.2%; viability, T/C [24]: 4.69%; viability, T/C [25]: 18.4%; viability, T/C [26]: 16.3%; viability, T/C [27]: 13.7%; viability, T/C [28]: 7.45%; viability, T/C [29]: 5.7%; viability, T/C [30]: 3.93%
